From US6432976B1, “8-aza-bicyclo[3.2.1]octane NMDA/NR2B antagonists” (Merck & Co., Inc., priority 1999, dated 2002)
Where a name gives a salt, the structure may show the parent alone.

Row | melting point | SMILES
1 | 172 to 173 °C | COC1C(Cc2ccccc2)CC2CCC1N2Cc1nc2ccccc2[nH]1 (racemic)
2 | 222 to 226 °C | COC1C(Cc2ccccc2)CC2CCC1N2Cc1nc2ccccc2[nH]1 (racemic) (as salt: hydrochloride)
3 | 208 to 209 °C | OC1C(Cc2ccccc2)CC2CCC1N2Cc1nc2ccccc2[nH]1 (racemic)
4 | 234 to 236 °C | OC1C(Cc2ccccc2)CC2CCC1N2Cc1nc2ccccc2[nH]1 (racemic) (as salt: hydrochloride)
